What was measured:
Type in all cases: cell-based
[1] = test system: herpes simplex virus type 2 (169 strain); test: 50% Tissue culture infective dose (TCID50), Read-Munch method, negative logarithm of virus dilution; design: key to Cytopathic effect [CPE] (5days) △TCID50 / Cytopathic effect [CPE] (6days) △TCID50 / Cytopathic effect [CPE] (3days) △TCID50: difference in -log TCID50 from untreated control; key to Cytopathic effect [CPE] (5days) TCID50 / Cytopathic effect [CPE] (3days) TCID50 / Cytopathic effect [CPE] (6days) TCID50: negative log of maximum virus dilution infecting 50% of tissues; settings: HSV-2 (169); for Cytopathic effect [CPE] (3days) △TCID50 / Cytopathic effect [CPE] (5days) △TCID50 / Cytopathic effect [CPE] (6days) △TCID50: difference from control
Method: (§1) The amount of virus infecting 50% of tissues (TCID₅₀) was determined by the Read-Munch method and expressed in negative logarithm of the maximum radio of dilution of virus. The difference of the amount thus determined from the amount found in the control (omitting the treatment with a chemical) was reported as ΔTCID₅₀. A sample whose ΔCPE's found on the last day of observation and on each of the days spent for the observation exceeded 1.0 was evaluated as effective.
In vitro antiviral activity of Compound A against herpes simplex virus type 2 (169 strain) The test was carried out by following the procedure of Example 3.

[2] = test system: herpes simplex virus type 1 (HF strain); test: Control of CPE (cytopathic effect) manifestation in vero cells; design: key to Cytopathic effect [CPE] (3days) Average / Cytopathic effect [CPE] (5days) Average / Cytopathic effect [CPE] (6days) Average: CPE score: 0 none, 0.5 minute spots, 1 = 25%, 2 = 50%, 3 = ≥75% cells; key to Cytopathic effect [CPE] (3days) △CPE / Cytopathic effect [CPE] (5days) △CPE / Cytopathic effect [CPE] (3days) ΔCPE / Cytopathic effect [CPE] (6days) ΔCPE: ΔCPE = difference of average CPE score (0–3 scale) from control; settings: for Cytopathic effect [CPE] (3days) △CPE / Cytopathic effect [CPE] (5days) △CPE / Cytopathic effect [CPE] (3days) ΔCPE / Cytopathic effect [CPE] (6days) ΔCPE: difference from control
Method: In vitro antiviral activity of Compound A against herpes simplex virus type 1 (HF strain) Compound A was tested for antiviral effect by the following two methods.
(§2) Vero cells cultured and grown in a monolayer on microplates to test for cytopathic effect due to viral infection, with solutions of Compound A diluted to varying ratios and solutions of virus diluted to varying ratios added severally thereto in a volume of 0.1 ml, were cultured under the conditions of 5% CO₂ and 37°C and were examined for CPE manifestation under a microscope. The observation was continued for five to six days.
(§3) The degree of CPE brought about by viral infection was rated on the five-point scale, wherein 3 stands for CPE observed on not less than 75% of cultured cells, 2 for CPE observed on 50% of cultured cells, 1 for CPE observed on 25% of cultured cells, 0.5 for occurrence of one to two extremely minute DPE spots, and 0 for perfect absence of recognizable CPE. The CPE scores obtained at the four holes in each microplate were averaged and the difference of the average from the average obtained in the control (omitting the treatment with a chemical) was reported as ΔCPE.
In vitro antiviral effect of Compound A against herpes simplex virus type 1 (HF strain) The test was carried out by following the procedure of Example 3.

[3] = test system: herpes simplex virus type 1 (KOS strain); test: One-step growth of virus, plaque assay with vero cells; settings: for Intracellular virus Average / Intracellular virus Control ratio % / Intracellular virus Control ratio -logT/C: 24 hours
Method: Antiviral activity of Compound A and Compound B against one-step growth of herpes simplex virus type 1 (KOS strain) Cells grown in a monolayer, with a sample of a given compound diluted in a varying ratio added, were pretreated for 15 minutes. Then, the pretreated cells were infected with the herpes simplex virus type 1 (KOS strain) at an infecting ratio of 0.25 and left standing for 24 hours. At the end of the standing, the intracellular and extracellular amounts of virus were determined by the plaque assay with vero cells.

[4] = test system: herpes simplex virus type 1 (KOS strain); test: Control of CPE (cytopathic effect) manifestation in vero cells; settings: HSV-1 (KOS), Example 7; for Cytopathic effect [CPE] (3days) △CPE / Cytopathic effect [CPE] (5days) △CPE: difference from control
Method: as §2, §3
(§4) Antiviral activity of Compound A and Compound B against herpes simplex virus type 1 (KOS strain) The test was carried out by following the procedure of Example 3.

[5] = test system: herpes simplex virus type 1 (KOS strain); test: 50% Tissue culture infective dose (TCID50), Read-Munch method, negative logarithm of virus dilution; design: key to Cytopathic effect [CPE] (5days) TCID50 / Cytopathic effect [CPE] (3days) TCID50: TCID50 as negative log of maximum virus dilution ratio; key to Cytopathic effect [CPE] (5days) △TCID50 / Cytopathic effect [CPE] (3days) △TCID50: difference from control TCID50, in negative log of virus dilution; settings: HSV-1 (KOS), Example 7; for Cytopathic effect [CPE] (3days) △TCID50 / Cytopathic effect [CPE] (5days) △TCID50: difference from control
Method: as §1, §4

[6] = 10 μg/ml, HSV-1 (HF), Example 3
[7] = 20 μg/ml, HSV-1 (HF), Example 3
[8] = 50 μg/ml, HSV-1 (HF), Example 3
[9] = 100 μg/ml, HSV-1 (HF strain), Example 5
[10] = 100 μg/ml, HSV-1 (HF), Example 3
[11] = 200 μg/ml, HSV-1 (HF strain), Example 5

Substance: K₅BW₁₂O₄₀.15H₂O [Compound A]
- Cytopathic effect [CPE] (3days) TCID50 ([1]; 5 μg/ml, Example 4): 6.5
- Cytopathic effect [CPE] (5days) TCID50 ([1]; 5 μg/ml, Example 4): 6.7
- Cytopathic effect [CPE] (3days) △TCID50 ([1]; 5 μg/ml, Example 4): 0
- Cytopathic effect [CPE] (5days) △TCID50 ([1]; 5 μg/ml, Example 4): 0.2
- Cytopathic effect [CPE] (3days) TCID50 ([1]; 10 μg/ml, Example 4): 6.3
- Cytopathic effect [CPE] (5days) TCID50 ([1]; 10 μg/ml, Example 4): 6.3
- Cytopathic effect [CPE] (3days) △TCID50 ([1]; 10 μg/ml, Example 4): 0.2
- Cytopathic effect [CPE] (5days) △TCID50 ([1]; 10 μg/ml, Example 4): 0.2
- Cytopathic effect [CPE] (3days) TCID50 ([1]; 20 μg/ml, Example 4): 6.5
- Cytopathic effect [CPE] (5days) TCID50 ([1]; 20 μg/ml, Example 4): 6.2
- Cytopathic effect [CPE] (3days) △TCID50 ([1]; 20 μg/ml, Example 4): 0
- Cytopathic effect [CPE] (5days) △TCID50 ([1]; 20 μg/ml, Example 4): 0.3
- Cytopathic effect [CPE] (3days) TCID50 ([1]; 50 μg/ml, Example 4): 5.5
- Cytopathic effect [CPE] (5days) TCID50 ([1]; 50 μg/ml, Example 4): 5.5
- Cytopathic effect [CPE] (3days) △TCID50 ([1]; 50 μg/ml, Example 4): 1.0
- Cytopathic effect [CPE] (5days) △TCID50 ([1]; 50 μg/ml, Example 4): 1.0
- Cytopathic effect [CPE] (3days) TCID50 ([1]; 100 μg/ml, Example 4): 3.5
- Cytopathic effect [CPE] (5days) TCID50 ([1]; 100 μg/ml, Example 4): 3.5
- Cytopathic effect [CPE] (3days) △TCID50 ([1]; 100 μg/ml, Example 4): 3.0
- Cytopathic effect [CPE] (5days) △TCID50 ([1]; 100 μg/ml, Example 4): 3.0
- Cytopathic effect [CPE] (3days) TCID50 ([1]; 100 μg/ml, Example 6): < 3.5
- Cytopathic effect [CPE] (6days) TCID50 ([1]; 100 μg/ml, Example 6): < 3.5
- Cytopathic effect [CPE] (3days) △TCID50 ([1]; 100 μg/ml, Example 6): > 3.2
- Cytopathic effect [CPE] (6days) △TCID50 ([1]; 100 μg/ml, Example 6): > 3.2
- Cytopathic effect [CPE] (3days) TCID50 ([1]; 200 μg/ml, Example 6): < 3.5
- Cytopathic effect [CPE] (6days) TCID50 ([1]; 200 μg/ml, Example 6): < 3.5
- Cytopathic effect [CPE] (3days) △TCID50 ([1]; 200 μg/ml, Example 6): > 3.2
- Cytopathic effect [CPE] (6days) △TCID50 ([1]; 200 μg/ml, Example 6): > 3.2
- Cytopathic effect [CPE] (3days) Average ([2]; 5 μg/ml, HSV-1 (HF), Example 3): 1.25
- Cytopathic effect [CPE] (5days) Average ([2]; 5 μg/ml, HSV-1 (HF), Example 3): 1.75
- Cytopathic effect [CPE] (3days) △CPE ([2]; 5 μg/ml, HSV-1 (HF), Example 3): 0.25
- Cytopathic effect [CPE] (5days) △CPE ([2]; 5 μg/ml, HSV-1 (HF), Example 3): 0
- Cytopathic effect [CPE] (3days) Average [2, 6]: 1.25
- Cytopathic effect [CPE] (5days) Average [2, 6]: 1.25
- Cytopathic effect [CPE] (3days) △CPE [2, 6]: 0.25
- Cytopathic effect [CPE] (5days) △CPE [2, 6]: 0.5
- Cytopathic effect [CPE] (3days) Average [2, 7]: 1.25
- Cytopathic effect [CPE] (5days) Average [2, 7]: 1.5
- Cytopathic effect [CPE] (3days) △CPE [2, 7]: 0.25
- Cytopathic effect [CPE] (5days) △CPE [2, 7]: 0.25
- Cytopathic effect [CPE] (3days) Average [2, 8]: 1.5
- Cytopathic effect [CPE] (5days) Average [2, 8]: 2.0
- Cytopathic effect [CPE] (3days) △CPE [2, 8]: 0
- Cytopathic effect [CPE] (5days) △CPE [2, 8]: 0.25
- Cytopathic effect [CPE] (3days) Average [2, 9]: 0.125
- Cytopathic effect [CPE] (6days) Average [2, 9]: 0.5
- Cytopathic effect [CPE] (3days) ΔCPE [2, 9]: 2.625
- Cytopathic effect [CPE] (6days) ΔCPE [2, 9]: 2.5
- Cytopathic effect [CPE] (3days) Average [2, 10]: 0.75
- Cytopathic effect [CPE] (5days) Average [2, 10]: 1.0
- Cytopathic effect [CPE] (3days) △CPE [2, 10]: 0.375
- Cytopathic effect [CPE] (5days) △CPE [2, 10]: 0.75
- Cytopathic effect [CPE] (3days) Average [2, 11]: 0
- Cytopathic effect [CPE] (6days) Average [2, 11]: 0
- Cytopathic effect [CPE] (3days) ΔCPE [2, 11]: 2.75
- Cytopathic effect [CPE] (6days) ΔCPE [2, 11]: 3.0
- Intracellular virus Average ([3]; 50 μg/ml, extracellular virus): 7.13×10^5 /dish
- Intracellular virus Control ratio % ([3]; 50 μg/ml, extracellular virus): 97.6%
- Intracellular virus Control ratio -logT/C ([3]; 50 μg/ml, extracellular virus): 1.623
- Intracellular virus Average ([3]; 50 μg/ml): 1.34×10^6 /dish
- Intracellular virus Control ratio % ([3]; 50 μg/ml): 99.7%
- Intracellular virus Control ratio -logT/C ([3]; 50 μg/ml): 2.482
- Intracellular virus Average ([3]; 100 μg/ml, extracellular virus): 8.38×10^4 /dish
- Intracellular virus Control ratio % ([3]; 100 μg/ml, extracellular virus): 99.7%
- Intracellular virus Control ratio -logT/C ([3]; 100 μg/ml, extracellular virus): 2.554
- Intracellular virus Average ([3]; 100 μg/ml): 1.99×10^6 /dish
- Intracellular virus Control ratio -logT/C ([3]; 100 μg/ml): 7.211
- Intracellular virus Control ratio % ([3]; 100 μg/ml, 1440 min): >99.9%
- Intracellular virus Control ratio -logT/C ([3]; 200 μg/ml, extracellular virus): 5.778
- Intracellular virus Control ratio % ([3]; 200 μg/ml, extracellular virus, 1440 min): >99.9%
- Intracellular virus Control ratio -logT/C ([3]; 200 μg/ml): > 7.211
- Intracellular virus Control ratio % ([3]; 200 μg/ml, 1440 min): >99.9%
- control of the intracellular and extracellular viruses in the one-step growth ([3]; concentration not given, 1440 min): not less than 99.9%
- Cytopathic effect [CPE] (3days) Average ([4]; 100 μg/ml): 0
- Cytopathic effect [CPE] (5days) Average ([4]; 100 μg/ml): 0
- Cytopathic effect [CPE] (3days) △CPE ([4]; 100 μg/ml): 2.0
- Cytopathic effect [CPE] (5days) △CPE ([4]; 100 μg/ml): 3.0
- Cytopathic effect [CPE] (3days) Average ([4]; 200 μg/ml): 0
- Cytopathic effect [CPE] (5days) Average ([4]; 200 μg/ml): 0
- Cytopathic effect [CPE] (3days) △CPE ([4]; 200 μg/ml): 2.0
- Cytopathic effect [CPE] (5days) △CPE ([4]; 200 μg/ml): 3.0
- Cytopathic effect [CPE] (3days) TCID50 ([5]; 100 μg/ml): 3.5
- Cytopathic effect [CPE] (5days) TCID50 ([5]; 100 μg/ml): 3.5
- Cytopathic effect [CPE] (3days) △TCID50 ([5]; 100 μg/ml): 2.0
- Cytopathic effect [CPE] (5days) △TCID50 ([5]; 100 μg/ml): 2.5
- Cytopathic effect [CPE] (3days) TCID50 ([5]; 200 μg/ml): 3.5
- Cytopathic effect [CPE] (5days) TCID50 ([5]; 200 μg/ml): 3.5
- Cytopathic effect [CPE] (3days) △TCID50 ([5]; 200 μg/ml): 2.0
- Cytopathic effect [CPE] (5days) △TCID50 ([5]; 200 μg/ml): 2.5

— patent EP0450065A1, “ANTIVIRAL AGENT” (priority 1988, dated 1990)
